From patent publication US10508107B2, “Morpholine derivative” (Hoffmann-La Roche Inc., priority 2016, dated 2019)
Read-outs that look alike come from different tables or passages of the source.

Columns and labels:
human TAAR1 = human TAAR1 (Homo sapiens (Human), UniProt Q96RJ0); assay: cAMP functional assay in HEK293 cells expressing human TAAR1; assay type: cell-based; conditions: for hTAAR1 efficacy*: % agonist activity, β-phenylethylamine = 100% agonism; for EC50: cAMP, HEK293 cells expressing human TAAR1, read-out: hTAAR1 EC50
Sequence of human TAAR1 (Q96RJ0 whole entry): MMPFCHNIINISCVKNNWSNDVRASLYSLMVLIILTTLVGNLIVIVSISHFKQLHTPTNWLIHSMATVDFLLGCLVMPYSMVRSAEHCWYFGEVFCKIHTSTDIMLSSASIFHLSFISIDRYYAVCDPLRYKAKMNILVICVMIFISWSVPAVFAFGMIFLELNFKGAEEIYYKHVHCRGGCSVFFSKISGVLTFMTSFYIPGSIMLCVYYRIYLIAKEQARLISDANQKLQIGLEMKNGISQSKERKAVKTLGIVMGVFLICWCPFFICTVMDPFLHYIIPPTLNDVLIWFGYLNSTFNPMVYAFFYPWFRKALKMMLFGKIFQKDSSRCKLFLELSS
Experimental: For the construction of expression plasmids the coding sequences of human TAAR 1 were amplified from genomic DNA essentially as described by Lindemann et al.[14]. The Expand High Fidelity PCR System (Roche Diagnostics) was used with 1.5 mM Mg^2+ and purified PCR products were cloned into pCR2.1-TOPO cloning vector (Invitrogen) following the instructions of the manufacturer. PCR products were subcloned into the pIRESneo2 vector (BD Clontech, Palo Alto, Calif.), and expression vectors were sequence verified before introduction in cell lines.
HEK293 cells (ATCC # CRL-1573) were cultured essentially as described by Lindemann et al. (2005). For the generation of stably transfected cell lines HEK293 cells were transfected with the pIRESneo2 expression plasmids containing the TAAR coding sequences (described above) with Lipofectamine 2000 (Invitrogen) according to the instructions of the manufacturer, and 24 hrs post transfection the culture medium was supplemented with 1 mg/ml G418 (Sigma, Buchs, Switzerland). After a culture period of about 10 d clones were isolated, expanded and tested for responsiveness to trace amines (all compounds purchased from Sigma) with the cAMP Biotrak Enzyme immunoassay (EIA) System (Amersham) following the non-acetylation EIA procedure provided by the manufacturer.
cAMP measurements were performed as described previously (Revel et al., Proc. Natl. Acad. Sci. USA 2011, 108, 8485-8490). In brief, cells that expressed human TAAR1 were plated on 96-well plates (BIOCOAT 6640; Becton Dickinson, Allschwil, Switzerland) and incubated for 20 h at 37° C. Prior to stimulation of the cells with a broad concentration range of agonists for 30 min at 37° C., the cells were washed with PBS and preincubated with PBS that contained 1 mM 3-isobutyl-1-methylxanthine for 10 min at 37° C. and 5% CO2. Stimulation with 0.2% DMSO was set as the basal level, and the effect of 30 μM β-PEA was set as the maximal response. Subsequently, the cells were lysed, and cAMP assays were performed according to the manufacturer's instructions (cAMP kit; Upstate/Millipore, Schaffhausen, Switzerland). Finally, the plates were read with a luminometer (1420 Multilabel counter; PerkinElmer, Schwerzenbach, Switzerland), and the amount of cAMP was calculated. The results were obtained from at least three independent experiments. Experiments were run in duplicate or triplicate. EC50 values are presented as mean ±standard deviation (in μM).

human DAT = human DAT (Homo sapiens (Human), UniProt Q01959); assay: Binding to dopamine transporter (DAT) in vitro, [3H]-WIN35,428 SPA; conditions: for Ki: [3H]-WIN35,428 radioligand; for DAT selectivity ratio versus hTAAR1 EC50: DAT Ki / hTAAR1 EC50
Sequence of human DAT (Q01959 whole entry): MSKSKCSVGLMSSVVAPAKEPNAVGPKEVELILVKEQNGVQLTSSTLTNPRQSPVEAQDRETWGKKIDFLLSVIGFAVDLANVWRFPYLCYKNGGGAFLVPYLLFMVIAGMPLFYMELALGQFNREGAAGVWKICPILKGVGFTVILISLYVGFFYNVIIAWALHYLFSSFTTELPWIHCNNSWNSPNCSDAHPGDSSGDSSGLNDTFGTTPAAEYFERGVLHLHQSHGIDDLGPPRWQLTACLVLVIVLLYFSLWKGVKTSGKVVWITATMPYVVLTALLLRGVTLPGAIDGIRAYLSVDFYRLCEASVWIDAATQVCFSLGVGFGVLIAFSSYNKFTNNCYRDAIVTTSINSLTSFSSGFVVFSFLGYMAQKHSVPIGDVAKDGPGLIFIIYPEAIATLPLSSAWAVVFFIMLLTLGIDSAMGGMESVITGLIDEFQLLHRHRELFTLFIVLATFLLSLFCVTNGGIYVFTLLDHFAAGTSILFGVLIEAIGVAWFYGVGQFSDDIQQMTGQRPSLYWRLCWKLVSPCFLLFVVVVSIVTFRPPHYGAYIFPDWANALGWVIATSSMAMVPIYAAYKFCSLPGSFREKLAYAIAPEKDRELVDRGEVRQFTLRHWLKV
Experimental: Binding to dopamine transporter (DAT) in vitro. Human embryonic kidney (HEK) 293 cells (Invitrogen, Zug, Switzerland) stably transfected with human DAT were cultured. The cells were collected and washed three times with phosphate-buffered saline (PBS). The pellets were frozen at −80° C. The pellets were then resuspended in 400 ml of 20 mM HEPES-NaOH, pH 7.4, that contained 10 mM EDTA at 4° C. After homogenization with a Polytron (Kinematica, Lucerne,
Switzerland) at 10000 rotations per minute (rpm) for 15 s, the homogenates were centrifuged at 48000×g for 30 min at 4° C. Aliquots of the membrane stocks were frozen at −80° C. All assays were performed at least three times. The test compounds were diluted in […] of binding buffer (252 mM NaCl, 5.4 mM KCl, 20 mM Na2HPO4, 3.52 mM KH2PO4, pH 7.4) and 10 point dilution curves were made and transferred to 96-well white polystyrene assay plates (Sigma-Aldrich, Buchs, Switzerland). […] Twenty microliters of binding buffer alone in the assay plate defined the total binding, whereas binding in the presence of 10 μM indatraline defined nonspecific binding. Frozen DAT membrane stocks were thawed and resuspended to a concentration of approximately 0.04 mg protein/ml binding buffer (1:1 diluted in H2O) using a polytron tissue homogenizer. The membrane homogenates (40 μg/ml) were then lightly mixed for 5-30 min with polyvinyl toluene […] wheat germ agglutinin-coated scintillation proximity assay (WGASPA; Amersham Biosciences) beads at 7.7 mg beads/ml homogenate. One hundred thirty microliters of the membrane/bead mixture were added to each well of the assay plate that contained radioligand and test compounds (final volume in each well, 200 μl) to start the assay, which was incubated for approximately 2 h at room temperature with agitation. The assay plates were then counted in the PVT SPA counting mode of a Packard Topcount. […] Non-linear regression was used to fit the data to sigmoid curves and determine IC50 values for binding and uptake. Ki values for binding and uptake were calculated using the following Cheng-Prusoff equation: Ki=IC50/(1+[S]/Km).

hERG potassium channel = hERG potassium channel (Homo sapiens (Human), UniProt Q12809); assay: hERG whole-cell patch-clamp in stably transfected CHO cells; assay type: cell-based; conditions: for IC50: patch-clamp, CHO cells, 36±1° C.; for selectivity ratio: pH 7.4, hERG IC20 / hTAAR1 EC50, read-out: hERG selectivity ratio versus hTAAR1 EC50
Sequence of hERG potassium channel (Q12809 whole entry): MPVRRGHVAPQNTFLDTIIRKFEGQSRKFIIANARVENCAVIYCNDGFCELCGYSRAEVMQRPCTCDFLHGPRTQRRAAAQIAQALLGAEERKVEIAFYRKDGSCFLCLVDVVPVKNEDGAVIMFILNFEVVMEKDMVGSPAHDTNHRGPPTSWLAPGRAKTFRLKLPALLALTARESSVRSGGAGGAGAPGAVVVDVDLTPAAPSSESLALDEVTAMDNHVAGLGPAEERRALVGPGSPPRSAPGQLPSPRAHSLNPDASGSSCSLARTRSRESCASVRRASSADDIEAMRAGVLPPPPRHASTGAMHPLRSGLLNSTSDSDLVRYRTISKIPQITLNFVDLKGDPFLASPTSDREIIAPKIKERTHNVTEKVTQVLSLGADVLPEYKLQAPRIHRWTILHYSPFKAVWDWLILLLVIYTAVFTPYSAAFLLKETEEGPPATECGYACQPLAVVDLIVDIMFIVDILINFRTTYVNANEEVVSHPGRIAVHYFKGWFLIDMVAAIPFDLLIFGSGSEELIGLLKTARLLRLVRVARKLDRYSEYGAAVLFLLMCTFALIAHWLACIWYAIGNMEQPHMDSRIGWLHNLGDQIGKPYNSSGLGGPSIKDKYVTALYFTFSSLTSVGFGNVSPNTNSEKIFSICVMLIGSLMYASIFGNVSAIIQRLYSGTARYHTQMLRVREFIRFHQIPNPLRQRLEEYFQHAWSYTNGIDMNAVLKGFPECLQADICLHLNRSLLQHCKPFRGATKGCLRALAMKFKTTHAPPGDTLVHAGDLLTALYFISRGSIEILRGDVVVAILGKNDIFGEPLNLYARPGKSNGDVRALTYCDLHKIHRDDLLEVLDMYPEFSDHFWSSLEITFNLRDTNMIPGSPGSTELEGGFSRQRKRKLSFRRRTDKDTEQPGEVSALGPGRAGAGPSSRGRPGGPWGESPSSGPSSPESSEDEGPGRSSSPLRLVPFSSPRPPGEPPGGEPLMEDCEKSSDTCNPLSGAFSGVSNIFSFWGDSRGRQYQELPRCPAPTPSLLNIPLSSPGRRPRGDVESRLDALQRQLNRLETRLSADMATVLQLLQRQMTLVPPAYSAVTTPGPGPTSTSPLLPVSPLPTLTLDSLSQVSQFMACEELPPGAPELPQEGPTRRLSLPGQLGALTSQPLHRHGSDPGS
Experimental: The whole-cell patch-clamp technique was used to investigate the effects of the test items on hERG (human-ether-a-go-go related gene) potassium channels in stably transfected CHO cells near physiological temperature (36±1° C.). The effects of compounds on hERG K^+-current parameters were evaluated at 4 concentrations (0.3-3-30-300 μM) in at least 3 CHO cells stably expressing the hERG channel. For electrophysiological measurements cells were seeded onto 35 mm sterile culture dishes containing 2 ml culture medium without Hygromycin B. Cells were cultivated at a density that enabled single cells (without visible connections to neighbouring cells) to be measured. Cells were incubated at 37° C. in a humidified atmosphere with 5% CO2 (rel. humidity about 95%). The cells were continuously maintained in and passaged in sterile culture flasks containing nutrient mixture F-12 (DMEM/F-12 with L-Glutamine) supplemented with 10% foetal bovine serum and 10% penicillin/streptomycin solution. […] The 35 mm culture dishes upon which cells were seeded at a density allowing single cells to be recorded were placed on the dish holder of the microscope and continuously perfused (at approximately 1 ml/min) with the bath solution (sodium chloride 150 mM, potassium chloride 4 mM, calcium chloride 1.2 mM, magnesium chloride 1 mM, HEPES 10 mM, pH (NaOH) 7.4) at near physiological temperature (36±1° C.). After formation of a Gigaohm seal between the patch electrodes and individual hERG stably transfected CHO cells (pipette resistance range: 2.0 MΩ-7.0 Mω; seal resistance range: >1 Gω) the cell membrane across the pipette tip was ruptured to assure electrical access to the cell interior (whole-cell patch-configuration). In case the quality of the seal was poor, the process of seal formation was repeated with a different cell and a new pipette. […] This voltage protocol was run at least 10 times at intervals of 10 s. If current density was judged to be too low for measurement, another cell was recorded. […] During wash-in of the test item the voltage protocol indicated above was run continuously again at 10 s intervals until the steady-state level of block was reached. The four test item concentrations of the compound were applied sequentially to 3 cells in a cumulative manner. […] Based on the IC50 value the IC20 was estimated. Each concentration of the test item was analyzed in three experiments (n=3).

[1] = human, CHO cells stably expressing hERG, pH 7.4, estimated based on the IC50 value
[2] = estimated based on the IC50 value
[3] = human, CHO cells stably expressing hERG

SMILES	hTAAR1 efficacy* (human TAAR1) [%]	EC50 (human TAAR1; listed as example 18) [µM]	EC50 (human TAAR1) [µM]	Ratio DAT Ki/hTAAR1 EC50 (human DAT)	Ki (human DAT) [µM]	Ratio hERG IC20/hTAAR1 EC50 (hERG potassium channel)	IC20 (hERG potassium channel; [1]) [µM]	IC50 (hERG potassium channel) [µM]	EC50 (human TAAR1; listed as example 17) [µM]	DAT selectivity ratio versus hTAAR1 EC50 (human DAT) [fold]	EC50 (human TAAR1; listed as example 14) [µM]	Ki (human DAT; listed as example 5) [µM]	IC20 (hERG potassium channel; [2]) [µM]	selectivity ratio (hERG potassium channel; [3])	EC50 (human TAAR1; listed as example 10) [µM]
Cc1cc(C(=O)Nc2ccc([C@H]3CNCCO3)cc2)cc(C)n1 [Example 18, 2,6-Dimethyl-N-[4-[(2S)-morpholin-2-yl]phenyl]pyridine-4-carboxamide]	63	0.827	0.827	>32	> 26.1	177	147	712	–	–	–	–	–	–	–
Cc1cc(C(=O)Nc2ccc([C@H]3CNCCO3)cc2)ccn1 [Example 17, 2-Methyl-N-[4-[(2S)-morpholin-2-yl]phenyl]pyridine-4-carboxamide]	45	–	0.673	15	10.3	193	130	518	0.673	15	–	–	–	–	–
Cc1cc(C(=O)Nc2ccc([C@H]3CNCCO3)cc2)cc(Cl)n1 [Example 14, 2-Chloro-6-methyl-N-[4-[(2S)-morpholin-2-yl]phenyl]pyridine-4-carboxamide]	53	–	0.447	16	7.32	48	21.6	73.2	–	16	0.447	–	–	–	–
O=C(Nc1ccc([C@H]2CNCCO2)cc1)c1ccnc(Cl)c1 [Example 5, 2-Chloro-N-[4-[(2S)-morpholin-2-yl]phenyl]pyridine-4-carboxamide]	40	–	0.0656	23	1.52	338	22.2	81.7	–	23	–	1.5	–	–	–
Cc1nc(C(=O)Nc2ccc([C@H]3CNCCO3)cc2)cs1 [Example 19, N-[4-[(2S)-Morpholin-2-yl]phenyl]2-methyl-1,3-thiazole-4-carboxamide]	32	–	1.02	21	21.9	8	–	60.5	–	–	–	–	8.32	8	–
N#Cc1ccc(C(=O)Nc2ccc([C@H]3CNCCO3)cc2)cn1 [Example 10, 6-Cyano-N-[4-[(2S)-morpholin-2-yl]phenyl]pyridine-3-carboxamide]	38	–	0.184	62	11.3	31	–	31.7	–	–	–	–	5.78	31	0.184
O=C(Nc1ccc([C@H]2CNCCO2)cc1)c1ccn(-c2ccccc2)n1 [Example 20, N-[4-[(2S)-Morpholin-2-yl]phenyl]-1-phenylpyrazole-3-carboxamide]	59	–	2.48	>11	> 26.1	1	–	10.8	–	–	–	–	2.49	1	–
O=C(Nc1ccc([C@H]2CNCCO2)cc1)c1cc(Cl)nc(Cl)c1 [Example 7, 2,6-Dichloro-N-[4-[(2S)-morpholin-2-yl]phenyl]pyridine-4-carboxamide]	57	–	0.0849	9	0.79	43	3.57	11.4	–	9	–	–	3.67	43	–
